From patent US9284423B2, “Crosslinkable composition crosslinkable by real michael addition (RMA) reaction” (NUPLEX RESINS B.V., priority 2011, dated 2016)

Tests used:
[1] = Determination of Michael addition reactivity (Example 12): loss of X-H component in butyl acrylate/methanol at room temperature, by back-titration (GC for dimethylmalonate); assay type: physicochemical; details: for Relative conversion rates (relative Michael addition reactivity: initial increase in % conversion, per minute): with strong base, same method as for succinimide; for Succinimide remaining (%): strong base (tetrabutylammonium hydroxide) added, % relative to theoretical level
Protocol: Subsequently, the concentration of succinimide is determined as a function of time by taking samples, neutralizing with a known excess of HCl in water, and backtitration with a KOH solution. […] Succinimide concentration is expressed as % relative to the theoretical level based on used amounts.

[2] = pKa defined in aqueous environment; cited from earlier work
[3] = butyl acrylate/methanol, room temperature

Row | SMILES | Relative conversion rates (relative Michael addition reactivity: initial increase in % conversion, per minute) [1, 3] | pKa [2] | other results
1 | c1nc[nH]n1 [1,2,4-triazole] | 0.91 % conversion, per minute |  | 
2 | CC1(C)NC(=O)NC1=O [5,5-dimethylhydantoin] | 0.03 % conversion, per minute | 10.2 | 
3 | c1ccc2[nH]nnc2c1 [benzotriazole] | 0.29 % conversion, per minute | 8.2 | 
4 | CCOC(=O)CC(=O)OCC [diethylmalonate] |  | 13.0 | 
5 | O=C1Nc2ccccc2C1=O [isatine] |  | 10.3 | 
6 | C[N+](=O)[O-] [nitromethane] |  | 10.2 | 
7 | O=C1CCC(=O)N1 [succinimide] | 0.33 % conversion, per minute |  | Succinimide acidic protons consumed ([1]; in about an hour, [succinimide]/[base]=5): 25%; Succinimide remaining (%) ([1]; time 3 min, [succinimide]/[base]=5, butyl acrylate/methanol, room temperature): 99%; Succinimide remaining (%) ([1]; time 30 min, [succinimide]/[base]=5, butyl acrylate/methanol, room temperature): 87%; Succinimide remaining (%) ([1]; time 60 min, [succinimide]/[base]=5, butyl acrylate/methanol, room temperature): 77%; Succinimide remaining (%) ([1]; time 120 min, [succinimide]/[base]=5, butyl acrylate/methanol, room temperature): 60%; Succinimide remaining (%) ([1]; time 180 min, [succinimide]/[base]=5, butyl acrylate/methanol, room temperature): 48%; Loss of succinimide N-H without base initiation ([1]; without base, butyl acrylate/methanol, room temperature, two weeks): no significant loss
8 | O=c1cc[nH]c(=O)[nH]1 [uracil] |  | 9.9 | 
